This assay addresses T1, FXR (Homo sapiens, UniProt Q96RI1).
T1 sequence (Q96RI1 262-486 limits assumed): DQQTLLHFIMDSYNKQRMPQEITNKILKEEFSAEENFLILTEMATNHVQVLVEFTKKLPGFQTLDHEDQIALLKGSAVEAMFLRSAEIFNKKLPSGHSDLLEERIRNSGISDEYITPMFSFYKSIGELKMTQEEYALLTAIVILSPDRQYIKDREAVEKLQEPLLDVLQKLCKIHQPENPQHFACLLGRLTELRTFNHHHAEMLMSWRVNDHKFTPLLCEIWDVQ
The assay is described as follows: FXR agonistic activity, luciferase assay. Format: cell-based. As to conditions: luc2P-GAL4-HEK293 cells transfected with pBIND-FXR, 24 hours. The method, then:
The FXR agonistic activity of the compound of the present invention was evaluated using the luciferase assay.
The experimental process comprises the follows. The luc2P-GAL4-HEK293 stably transfected cell line (the cell line was established by transfecting pGL4.35 plasmid with HEK293 cells which was then subjected to Hygromycin B screening. The cell contained 9×GAL4 UAS and firefly luciferase reporter gene. The ligand-activated LBD-GAL4 DBD fusion protein can enter the nucleus to bind to 9×GAL4 UAS and activate the transcription of the downstream luciferase reporter gene) was transferred to a 96-well plate with […] per well. pBIND-FXR (Which was constructed by inserting FXR-LBD into pFN26A-BIND hRluc-neo Flexi® vector. The plasmid was 7.5 kb in size, Amp resistant, contained FXR-LBD, and can express FXR-LBD and GAL4 DBD fusion proteins) was transfected using X-tremeGENE HP transfection reagent. The ratio of plasmid to transfection reagent was 1 μg: 2 μl. The specific amount was 100 ng of plasmid and 0.2 μl of X-tremeGENE HP transfection reagent per well. The test compounds (the highest concentration of each compound was 30 μM, 3-fold dilution, a total of 10 concentrations) were added to induce the expression of luciferase. After 24 hours, the 96-well plate containing the test cells was taken out from the incubator, and placed at room temperature. Dual-Glo® Luciferase Reagent with the volume equal to the volume of the medium in the well (80 μl/well) was added to each well and mixed well. The plate was incubated at room temperature for 20 minutes to allow the cells to be fully lysed. All the liquid in the plate was transferred to a 96-well microtiter plate, and the firefly luciferin value was measured with a multi-function plate reader (manufacturer: Bio Tek (USA); model: Synergy4). Dual-Glo® a Stop & Glo® Reagent with the volume equal to the volume of the initial medium (80 μl/well) was added to each well and mixed well. The plate was incubated at room temperature for 10 minutes, and the renilla luciferin value was measured. The measurement order of renilla fluorescence should be the same as that of firefly fluorescence. Curve fitting and EC50 calculation were conducted using GraphPad Prism 5 software by nonlinear regression method. The fitting equation is: Y=Bottom+(Top−Bottom)/(1+10^((Log EC50−X)*HillSlope)), wherein EC50 refers to the semi-effective concentration, Top refers to the maximum effect, Bottom refers to the blank effect, and HillSlope refers to the slope.

Our source for the EC50 values is patent US20220127258A1, “AROMATIC RING OR HETEROAROMATIC RING COMPOUNDS, PREPARATION METHOD THEREFOR AND MEDICAL USE THEREOF” (The National Institutes of Pharmaceutical R&D Co., Ltd., priority 2019, published 2022).

Usually EC50 stands for the concentration that produces a half-maximal response. For `O=C(O)c1csc(-c2nnc(N3[C@@H]4CC[C@H]3C[C@@H](OCc3c(-c5ccccc5OC(F)(F)F)noc3C3CC3)C4)o2)c1` [Example 33, 5-(5-((1R,3r,5S)-3-((5-cyclopropyl-3-(2-(trifluoromethoxy)phenyl)isoxazol-4-yl)methoxy)-8-azabicyclo[3.2.1]octan-8-yl)-1,3,4-oxadiazol-2-yl)thiophene-3-carboxylic acid], the EC50 lay in the range of 100 to 500 nM.
On to `O=C(O)c1ccc(-c2nnc(N3[C@@H]4CC[C@H]3C[C@@H](OCc3c(-c5c(Cl)cccc5Cl)noc3C3CC3)C4)o2)cn1` [Example 18, 5-(5-((1R,3r,5S)-3-((5-cyclopropyl-3-(2,6-dichlorophenyl)isoxazol-4-yl)methoxy)-8-azabicyclo[3.2.1]octan-8-yl)-1,3,4-oxadiazol-2-yl)pyridine-carboxylic acid], for which the 50% effective concentration (EC50) lay within 100 to 500 nM.
To `Cc1cc(-c2nnc(N3[C@@H]4CC[C@H]3C[C@@H](OCc3c(-c5ccccc5OC(F)(F)F)noc3C3CC3)C4)o2)ccc1C(=O)O` [Example 30] belongs less than 25 nM; to `O=C(O)c1ccc(-c2noc(N3[C@@H]4CC[C@H]3C[C@@H](OCc3c(-c5c(Cl)cccc5Cl)noc3C3CC3)C4)n2)cc1` [Example 1, 4-(5-((1R,3r,5S)-3-((5-cyclopropyl-3-(2,6-dichlorophenyl)-isoxazol-4-yl)methoxy)-8-azabicyclo[3.2.1]octan-8-yl)-1,2,4-oxadiazol-3-yl)benzoic acid], less than 25 nM.
As to `O=C(O)c1ccc(-c2nnc(N3[C@@H]4CC[C@H]3C[C@@H](OCc3c(-c5ccccc5OC(F)(F)F)noc3C3CC3)C4)o2)nc1` [Example 32], the concentration giving a half-maximal response (EC50) was more than 500 nM.
For `O=C(O)c1cccc(-c2nnc(N3[C@@H]4CC[C@H]3C[C@@H](OCc3c(-c5c(Cl)cccc5Cl)noc3C3CC3)C4)o2)c1` [Example 15], the EC50 was less than 25 nM.
As to `O=C(O)c1ccc(-c2nnc(N3[C@@H]4CC[C@H]3C[C@@H](OCc3c(-c5c(Cl)cccc5Cl)noc3C3CC3)C4)o2)c(F)c1` [Example 16, 4-(5-((1R,3r,5S)-(3-((5-cyclopropyl-3-(2,6-dichlorophenyl)isoxazol-4-yl))methoxy)-8-azabicyclo[3.2.1]octan-8-yl)-1,3,4-oxadiazol-2-yl)-3-fluorobenzoic acid], the EC50 was 50 to 100 nM.
Consider `Cc1cc(-c2nnc(N3[C@@H]4CC[C@H]3C[C@@H](OCc3c(-c5c(Cl)cccc5Cl)noc3C3CC3)C4)o2)ccc1C(=O)O` [Example 17], for which the EC50 is less than 25 nM.
As to `O=C(O)c1ccc(-c2noc(N3[C@@H]4CC[C@H]3C[C@@H](OCc3c(-c5c(Cl)cccc5Cl)noc3C3CC3)C4)n2)cc1Cl` [Example 2, 2-chloro-4-(5-((1R,3r,5S)-3-((5-cyclopropyl-3-(2,6-dichlorophenyl)isoxazol-4-yl)methoxy)-8-azabicyclo[3.2.1]octan-8-yl)-1,2,4-oxadiazol-3-yl)benzoic acid], the EC50 is less than 25 nM.
For `Cc1cc(C(=O)O)ccc1-c1nnc(N2[C@@H]3CC[C@H]2C[C@@H](OCc2c(-c4ccccc4OC(F)(F)F)noc2C2CC2)C3)o1` [Example 27], the EC50 is less than 25 nM.
The result for `O=C(O)c1ccc(-c2noc(N3[C@@H]4CC[C@H]3C[C@@H](OCc3c(-c5c(Cl)cccc5Cl)noc3C3CC3)C4)n2)s1` [Example 4] reads less than 25 nM; that for `O=C(O)c1ccc(-c2nnc(N3[C@@H]4CC[C@H]3C[C@@H](OCc3c(-c5ccccc5OC(F)(F)F)noc3C3CC3)C4)o2)cn1` [Example 31, 5-(5-((1R,3r,5S)-3-((5-cyclopropyl-3-(2-(trifluoromethoxy)phenyl)isoxazol-4-yl)methoxy)-8-azabicyclo[3.2.1]octan-8-yl)-1,3,4-oxadiazol-2-yl)pyridine-carboxylic acid], 100 to 500 nM; that for `O=C(O)c1cc(-c2nnc(N3[C@@H]4CC[C@H]3C[C@@H](OCc3c(-c5c(Cl)cccc5Cl)noc3C3CC3)C4)o2)cs1` [Example 21], 100 to 500 nM.
To `O=C(O)c1cccc(-c2noc(N3[C@@H]4CC[C@H]3C[C@@H](OCc3c(-c5c(Cl)cccc5Cl)noc3C3CC3)C4)n2)n1` [Example 3] belongs less than 25 nM.
In the case of `O=C(O)c1ccc(-c2nnc(N3[C@@H]4CC[C@H]3C[C@@H](OCc3c(-c5ccccc5OC(F)(F)F)noc3C3CC3)C4)o2)s1` [Example 25], the 50% effective concentration (EC50) lay in the range of 100 to 500 nM.
On to `O=C(O)c1cccc(-c2noc(N3[C@@H]4CC[C@H]3C[C@@H](OCc3c(-c5c(Cl)cccc5Cl)noc3C3CC3)C4)n2)c1` [Example 6], for which the EC50 is less than 25 nM.
For `Cc1cc(-c2noc(N3[C@@H]4CC[C@H]3C[C@@H](OCc3c(-c5c(Cl)cccc5Cl)noc3C3CC3)C4)n2)ccc1C(=O)O` [Example 7], the EC50 was less than 25 nM.
Consider `O=C(O)c1cc(-c2nnc(N3[C@@H]4CC[C@H]3C[C@@H](OCc3c(-c5ccccc5OC(F)(F)F)noc3C3CC3)C4)o2)cs1` [Example 34], for which the concentration for a half-maximal effect (EC50) is more than 500 nM.
Consider `O=C(O)c1ccc(-c2nnc(N3[C@@H]4CC[C@H]3C[C@@H](OCc3c(-c5c(Cl)cccc5Cl)noc3C3CC3)C4)o2)nc1` [Example 19, 6-(5-((1R,3r,5S)-3-((5-cyclopropyl-3-(2,6-dichlorophenyl)isoxazol-4-yl)methoxy)-8-azabicyclo[3.2.1]octan-8-yl)-1,3,4-oxadiazol-2-yl)nicotinic acid], for which the concentration for a half-maximal effect (EC50) is more than 500 nM.
The result for `COc1cc(-c2nnc(N3[C@@H]4CC[C@H]3C[C@@H](OCc3c(-c5c(Cl)cccc5Cl)noc3C3CC3)C4)o2)ccc1C(=O)O` [Example 13] reads less than 25 nM.
To `O=C(O)c1cccc(-c2nnc(N3[C@@H]4CC[C@H]3C[C@@H](OCc3c(-c5c(Cl)cccc5Cl)noc3C3CC3)C4)o2)n1` [Example 10, 6-(5-((1R,3r,5S)-3-((5-cyclopropyl-3-(2,6-dichlorophenyl)isoxazol-4-yl)methoxy)-8-azabicyclo[3.2.1]octan-8-yl)-1,3,4-oxadiazol-2-yl)pyridine-2-carboxylic acid] belongs 100 to 500 nM; to `Cc1cc(C(=O)O)ccc1-c1noc(N2[C@@H]3CC[C@H]2C[C@@H](OCc2c(-c4c(Cl)cccc4Cl)noc2C2CC2)C3)n1` [Example 5], less than 25 nM.
Turning to `O=C(O)c1cccc(-c2nnc(N3[C@@H]4CC[C@H]3C[C@@H](OCc3c(-c5ccccc5OC(F)(F)F)noc3C3CC3)C4)o2)n1` [Example 24, 6-(5-((1R,3r,5S)-3-((5-cyclopropyl-3-(2-(trifluoromethoxy)phenyl)isoxazol-4-yl)methoxy)-8-azabicyclo[3.2.1]octan-8-yl)-1,3,4-oxadiazol-2-yl)pyridine-2-carboxylic acid], the EC50 was more than 500 nM.
Take `O=C(O)c1ccc(-c2nnc(N3[C@@H]4CC[C@H]3C[C@@H](OCc3c(-c5ccccc5OC(F)(F)F)noc3C3CC3)C4)o2)cc1Cl` [Example 23, 2-chloro-4-(5-((1R,3r,5S)-3-((5-cyclopropyl-3-(2-(trifluoromethoxy)phenyl)isoxazol-4-yl)methoxy)-8-azabicyclo[3.2.1]octan-8-yl)-1,3,4-oxadiazol-2-yl)benzoic acid]: the EC50 is 100 to 500 nM.
